The record followed here is patent publication US20020028479A1, “Methods for the detection of fungal growth” (priority 2000, published 2002).

One assay deals with A. nidulans 200092. As to the kind of experiment: Spore germination with indicator/electron donor added at T0, viewed microscopically. It counts as cell-based. To be noted: added at the same time as spores (T0), no viability at 48 hours. On the procedure: Spores from a frozen stock of A. nidulans 200092 at 1.63×10^7/ml) were diluted to 5×10^3/ml to yield 500 spores per well in yeast extract with glucose broth supplemented with lysine and uridine.
Tetrazolium salts (listed in Table 1) were each dissolved to 1 mg/ml in phosphate-buffered saline (PBS) or water, aliquotted, and frozen. Electron coupling agents phenazine methosulfate (PMS; lot 194-03) and menadione (MEN; lot 170-95) were prepared at 5 mM in PBS and 10 mM in acetone, respectively. Cultures had no electron coupling reagent added, PMS (120 μl of PMS per 12 ml of tetrazolium salt) or MEN (42 μl per 12 ml of tetrazolium salt). Each well received 25 μl of indicator.
Indicator (with or without electron coupling reagent) was added at the same time as spores (T0), following ˜24 hours of incubation (T24), or following ˜48 hours of incubation (T48). Wells were viewed ˜2 hours post addition. NC denotes no color seen.
Microscopically, when compared to wells that had no indicator added or had PMS added, it was evident that the spores were present but had not germinated. At 48 hours, these same wells still had not shown any signs of viability.

Assay [1] has as its system Aspergillus nidulans 200092. As to the kind of experiment: MTS/MEN growth inhibition assay, OD490.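 Note: fungal spore suspensions in 96-well plates with MTS/MEN indicator, absorbance read after 2 h and again after further development up to 24 h, controls containing medium only.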
Experimental: Spores from a frozen stock of Aspergillus nidulans 200092 (at 1.63×10^7/ml) were diluted to 5×10^3/ml to yield 500 spores per well in yeast extract with glucose broth supplemented with lysine and uridine.
MEN was added at a ratio of 42 μl MEN per 12 ml of MTS. Each well received 25 μl indicator.
98 μl of the spore suspension was added to the wells of a 96 well plate. Control wells received media only. […] Plates were then incubated for 2 hours and then read at OD490. MTS/MEN was then allowed to develop for an additional period of time up to 24 hours and the plates was re-read.
Setting [2] is: Aspergillus nidulans, 200092, 2 h.
The mark [3] stands for this setting: Aspergillus nidulans, 200092, 24 h.

`c1ccc(-c2nn(-c3ccccc3)[n+](-c3cccc4ccccc34)n2)cc1` [TV, Tetrazolium Violet]: the “germination or growth of the spores” value with A. nidulans 200092 is listed as “inhibit germination or growth of the spores”.

For the molecule `Clc1ccccc1C(c1ccccc1)(c1ccccc1)n1ccnc1` [Clotrimazole, clotrimazole], in assay [1] (setting [2]), the inhibition at 0.0039 µg/mL was 15.8%, the inhibition at 0.0078 µg/mL amounted to 35.4%, the inhibition at 0.0156 µg/mL came out at 26% and the inhibition at 0.0313 µg/mL was 56.8%. Moreover, in assay [1] (setting [2]), the inhibition at 0.0625 µg/mL came out at 86.5%, the inhibition at 0.125 µg/mL came out at 94.6%, the inhibition at 0.25 µg/mL was 93% and the inhibition at 0.5 µg/mL worked out at 93%. Moreover, in assay [1] (setting [2]), the inhibition at 1 µg/mL is 94.5%, the inhibition at 2 µg/mL was 93.4%, the inhibition at 4 µg/mL was determined as 95.8% and the inhibition at 8 µg/mL was 94.4%. Also, in assay [1] (setting [2]), the inhibition at 16 µg/mL was determined as 94.4%, the inhibition at 32 µg/mL stood at 91.5% and the inhibition at 64 µg/mL was found to be 86%. Moreover, in assay [1] (setting [3]), the inhibition at 0.0039 µg/mL is 6.6%, the inhibition at 0.0078 µg/mL was found to be 48.5%, the inhibition at 0.0156 µg/mL is 47.2% and the inhibition at 0.0313 µg/mL is 70.1%. In addition, in assay [1] (setting [3]), the inhibition at 0.0625 µg/mL is 77%, the inhibition at 0.125 µg/mL worked out at 93.6%, the inhibition at 0.25 µg/mL was 91.6% and the inhibition at 0.5 µg/mL stood at 92%. For the same molecule, in assay [1] (setting [3]), the inhibition at 1 µg/mL was found to be 93.9%, the inhibition at 2 µg/mL worked out at 92.3%, the inhibition at 4 µg/mL was 96.2% and the inhibition at 8 µg/mL is 94.2%. In assay [1] (setting [3]), the inhibition at 16 µg/mL came to 93.4%, the inhibition at 32 µg/mL is 92.1% and the inhibition at 64 µg/mL is 91.9%.

As to `COc1cc(-c2ccc(-n3nc(-c4ccccc4)n[n+]3-c3ccccc3)c(OC)c2)ccc1-n1nc(-c2ccccc2)n[n+]1-c1ccccc1` [BT, Tetrazolium Blue Chloride], the “germination or growth of the spores” value with A. nidulans 200092 was “inhibit germination or growth of the spores”.

Consider `CC1=CC(=O)c2ccccc2C1=O` [MEN, menadione], for which, in the assay on A. nidulans 200092, the “germination or growth of the spores” value is “inhibit germination or growth of the spores”.

Take `C[n+]1cc2c3c(ccc2c2ccc4cc5c(cc4c21)OCO5)OCO3` [Sanguinarine, sanguinarine]: in assay [1] (setting [2]), the IC50 was 1.42 µg/mL, the inhibition at 0.0061 µg/mL amounted to 16.2%, the inhibition at 0.0122 µg/mL was -3.1% and the inhibition at 0.0244 µg/mL was found to be 15.6%. In addition, in assay [1] (setting [2]), the inhibition at 0.0488 µg/mL stood at 15.7%, the inhibition at 0.0977 µg/mL came to 42.9%, the inhibition at 0.1953 µg/mL worked out at 10.2% and the inhibition at 0.3906 µg/mL was 33.8%. Also, in assay [1] (setting [2]), the inhibition at 0.7813 µg/mL was 45%, the inhibition at 1.5625 µg/mL was determined as 49.6%, the inhibition at 3.125 µg/mL is 50.8% and the inhibition at 6.25 µg/mL was 86.9%. Further, in assay [1] (setting [2]), the inhibition at 12.5 µg/mL was 89.4%, the inhibition at 25 µg/mL was found to be 88.4%, the inhibition at 50 µg/mL was found to be 77.3% and the inhibition at 100 µg/mL was found to be 53.3%. For the same molecule, the inhibition at 200 µg/mL in assay [1] (setting [2]) is 7%. For the same molecule, in assay [1] (setting [3]), the IC50 amounted to 2.77 µg/mL, the inhibition at 0.0061 µg/mL was 10.9%, the inhibition at 0.0122 µg/mL was -1.7% and the inhibition at 0.0244 µg/mL was found to be 5.1%. Moreover, in assay [1] (setting [3]), the inhibition at 0.0488 µg/mL turned out to be 7.9%, the inhibition at 0.0977 µg/mL was 18.4%, the inhibition at 0.1953 µg/mL is -2.4% and the inhibition at 0.3906 µg/mL was determined as 12.6%. Besides, in assay [1] (setting [3]), the inhibition at 0.7813 µg/mL was 19.7%, the inhibition at 1.5625 µg/mL is 39.8%, the inhibition at 3.125 µg/mL worked out at 42.2% and the inhibition at 6.25 µg/mL is 86.7%. In assay [1] (setting [3]), the inhibition at 12.5 µg/mL worked out at 93.7%, the inhibition at 25 µg/mL is 92.4%, the inhibition at 50 µg/mL turned out to be 91.7% and the inhibition at 100 µg/mL turned out to be 87.5%. Also, the inhibition at 200 µg/mL in assay [1] (setting [3]) is 79.5%.

For `COc1cc(-c2ccc(-[n+]3nc(-c4ccc([N+](=O)[O-])cc4)nn3-c3ccc([N+](=O)[O-])cc3)c(OC)c2)ccc1-[n+]1nc(-c2ccc([N+](=O)[O-])cc2)nn1-c1ccc([N+](=O)[O-])cc1.[Cl-].[Cl-]` [TNTB, Tetranitro Blue Tetrazolium], the “germination or growth of the spores” value in the assay with A. nidulans 200092 was “inhibit germination or growth of the spores”.

Regarding `O=[N+]([O-])c1ccc(-[n+]2nc(-c3ccccc3)nn2-c2ccc(I)cc2)cc1.[Cl-]` [INT, p-Iodonitrotetrazolium Violet], the “germination or growth of the spores” value in the assay with A. nidulans 200092 is given as “inhibit germination or growth of the spores”.
